The numbers were not newly measured in patent US7641924B2, “Nutritional composition for controlling blood sugar level” (Meiji Dairies Corporation, priority 2001, dated 2010), which cites them from elsewhere.

Data set [1] addresses isomaltase in the small intestine (Homo sapiens, UniProt P14410).
The conditions of data set [2]: in vivo.

Sequence of isomaltase in the small intestine (P14410 whole entry): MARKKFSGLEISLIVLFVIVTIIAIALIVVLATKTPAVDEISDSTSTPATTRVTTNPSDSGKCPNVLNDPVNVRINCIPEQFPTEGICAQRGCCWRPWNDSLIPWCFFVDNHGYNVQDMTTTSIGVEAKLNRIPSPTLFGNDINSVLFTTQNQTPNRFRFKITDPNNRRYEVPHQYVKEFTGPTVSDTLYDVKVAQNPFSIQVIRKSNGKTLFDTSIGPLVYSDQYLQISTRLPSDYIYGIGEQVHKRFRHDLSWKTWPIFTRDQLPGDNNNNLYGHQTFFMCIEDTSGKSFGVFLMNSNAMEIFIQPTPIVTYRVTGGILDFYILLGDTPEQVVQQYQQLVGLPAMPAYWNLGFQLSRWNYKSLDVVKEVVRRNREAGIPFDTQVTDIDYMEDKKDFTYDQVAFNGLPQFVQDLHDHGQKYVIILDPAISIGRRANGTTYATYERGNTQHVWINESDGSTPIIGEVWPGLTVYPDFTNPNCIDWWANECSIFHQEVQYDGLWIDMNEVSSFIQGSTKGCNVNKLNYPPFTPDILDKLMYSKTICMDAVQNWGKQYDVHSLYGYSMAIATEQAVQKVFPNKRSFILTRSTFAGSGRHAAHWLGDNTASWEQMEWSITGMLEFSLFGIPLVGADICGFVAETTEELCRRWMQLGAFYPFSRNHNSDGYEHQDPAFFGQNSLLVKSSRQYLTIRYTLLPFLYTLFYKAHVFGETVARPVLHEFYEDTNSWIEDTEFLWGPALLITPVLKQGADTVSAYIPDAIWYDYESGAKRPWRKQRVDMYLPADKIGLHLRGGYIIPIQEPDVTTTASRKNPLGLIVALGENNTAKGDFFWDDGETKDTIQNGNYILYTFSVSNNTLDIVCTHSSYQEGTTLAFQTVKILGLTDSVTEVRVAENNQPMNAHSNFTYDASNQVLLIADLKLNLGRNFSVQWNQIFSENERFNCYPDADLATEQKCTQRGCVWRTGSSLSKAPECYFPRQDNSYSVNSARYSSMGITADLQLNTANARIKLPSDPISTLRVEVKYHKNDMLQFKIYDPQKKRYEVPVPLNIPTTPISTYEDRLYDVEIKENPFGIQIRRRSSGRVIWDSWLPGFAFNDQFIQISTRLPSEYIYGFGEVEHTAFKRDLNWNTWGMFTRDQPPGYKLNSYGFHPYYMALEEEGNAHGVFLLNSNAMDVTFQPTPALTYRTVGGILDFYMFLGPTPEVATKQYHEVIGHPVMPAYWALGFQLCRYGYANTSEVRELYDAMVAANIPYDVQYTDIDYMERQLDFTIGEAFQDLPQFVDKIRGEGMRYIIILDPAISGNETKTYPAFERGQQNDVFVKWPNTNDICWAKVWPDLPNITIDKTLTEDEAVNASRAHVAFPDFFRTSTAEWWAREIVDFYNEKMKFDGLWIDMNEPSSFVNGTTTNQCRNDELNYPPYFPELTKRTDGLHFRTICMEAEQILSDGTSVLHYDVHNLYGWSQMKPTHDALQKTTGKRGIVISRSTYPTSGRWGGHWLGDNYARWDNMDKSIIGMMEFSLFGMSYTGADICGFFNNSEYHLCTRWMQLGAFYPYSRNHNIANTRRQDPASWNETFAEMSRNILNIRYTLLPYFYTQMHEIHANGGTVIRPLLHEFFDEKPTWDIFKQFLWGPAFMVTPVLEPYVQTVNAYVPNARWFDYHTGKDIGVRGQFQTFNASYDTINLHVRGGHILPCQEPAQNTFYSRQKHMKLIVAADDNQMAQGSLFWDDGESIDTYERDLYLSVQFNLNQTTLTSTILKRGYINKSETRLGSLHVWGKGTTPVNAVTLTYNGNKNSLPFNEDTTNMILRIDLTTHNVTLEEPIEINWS

Take `OC[C@H]1O[C@H](OC[C@H]2OC(O)(CO)[C@@H](O)[C@@H]2O)[C@H](O)[C@@H](O)[C@@H]1O` (some centres unmarked) [palatinose, Palatinose]: the “hydrolysis rate relative to that of sucrose” value in data set [1] is listed as “one fifth”. Also, in data set [2], the “blood glucose level after intake” value was “maintained at predetermined levels over many hours” and the “insulin level after intake” value is listed as “maintained at predetermined levels over many hours”.
Take Trehalulose: the “hydrolysis rate relative to that of sucrose” value in data set [1] is on record as “one third”. Besides, the “hydrolysis rate relative to that of palatinose” value in data set [1] (small intestine) is listed as “about 2 times”.
